Assays:
[1] = molecular target: Bromodomain testis-specific protein (Homo sapiens) (UniProt Q58F21); test: Binding affinity to BRDT BD1 (unknown origin) using biotinylated histone peptide H4 as substrate at 1 uM incubated for 2 hrs by AlphaScreen assay relative to control
[2] = molecular target: Chromatin remodeling regulator CECR2 (Homo sapiens) (UniProt Q9BXF3); conditions: time 30.0 min
Peregrin (Homo sapiens) = molecular target: T1, Peregrin (Homo sapiens) (UniProt P55201); conditions: time 30.0 min
T1 sequence (whole entry): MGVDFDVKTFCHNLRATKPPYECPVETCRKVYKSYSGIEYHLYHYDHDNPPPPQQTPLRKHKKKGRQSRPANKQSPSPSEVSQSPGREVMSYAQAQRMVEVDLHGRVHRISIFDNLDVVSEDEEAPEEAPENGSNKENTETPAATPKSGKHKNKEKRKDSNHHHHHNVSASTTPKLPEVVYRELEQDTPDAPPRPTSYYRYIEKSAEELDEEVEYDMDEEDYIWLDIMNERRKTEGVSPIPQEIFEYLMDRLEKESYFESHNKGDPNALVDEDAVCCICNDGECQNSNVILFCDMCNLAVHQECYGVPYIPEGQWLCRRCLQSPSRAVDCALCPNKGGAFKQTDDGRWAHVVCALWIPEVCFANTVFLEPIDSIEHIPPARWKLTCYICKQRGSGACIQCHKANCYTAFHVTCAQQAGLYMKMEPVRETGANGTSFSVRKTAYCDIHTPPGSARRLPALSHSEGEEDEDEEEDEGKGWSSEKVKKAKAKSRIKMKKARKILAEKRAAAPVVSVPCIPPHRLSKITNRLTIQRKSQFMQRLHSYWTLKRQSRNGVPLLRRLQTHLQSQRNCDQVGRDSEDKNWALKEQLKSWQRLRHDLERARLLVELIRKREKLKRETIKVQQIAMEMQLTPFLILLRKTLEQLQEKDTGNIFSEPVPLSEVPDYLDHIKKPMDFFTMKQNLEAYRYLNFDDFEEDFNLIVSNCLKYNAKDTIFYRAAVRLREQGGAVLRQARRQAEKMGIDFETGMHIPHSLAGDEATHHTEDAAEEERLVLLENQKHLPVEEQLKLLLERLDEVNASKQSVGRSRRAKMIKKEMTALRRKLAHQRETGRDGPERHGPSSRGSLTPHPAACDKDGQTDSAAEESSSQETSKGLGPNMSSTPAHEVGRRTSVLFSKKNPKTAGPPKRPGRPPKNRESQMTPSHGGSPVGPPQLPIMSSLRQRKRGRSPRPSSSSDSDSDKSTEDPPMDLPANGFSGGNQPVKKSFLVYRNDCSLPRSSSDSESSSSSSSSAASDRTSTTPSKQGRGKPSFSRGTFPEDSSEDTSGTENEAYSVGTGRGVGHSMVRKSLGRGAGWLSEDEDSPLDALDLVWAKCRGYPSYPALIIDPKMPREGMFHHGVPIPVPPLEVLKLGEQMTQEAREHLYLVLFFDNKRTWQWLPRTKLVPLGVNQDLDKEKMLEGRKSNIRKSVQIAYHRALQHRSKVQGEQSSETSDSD

[3] = molecular target: Histone acetyltransferase KAT2A (Homo sapiens) (UniProt Q92830); conditions: time 30.0 min
[4] = molecular target: CREB-binding protein (Homo sapiens) (UniProt Q92793); test: Binding affinity to CREBBP (unknown origin) using biotinylated histone peptide H4 as substrate at 1 uM incubated for 2 hrs by AlphaScreen assay relative to control
Homo sapiens = species on record: Homo sapiens; conditions: time 30.0 min
[5] = molecular target: T2, Bromodomain-containing protein 7 (Homo sapiens) (UniProt Q9NPI1); test: Binding affinity to BRD7 (unknown origin) using biotinylated histone peptide H4 as substrate at 1 uM incubated for 2 hrs by AlphaScreen assay relative to control
T2 sequence (whole entry): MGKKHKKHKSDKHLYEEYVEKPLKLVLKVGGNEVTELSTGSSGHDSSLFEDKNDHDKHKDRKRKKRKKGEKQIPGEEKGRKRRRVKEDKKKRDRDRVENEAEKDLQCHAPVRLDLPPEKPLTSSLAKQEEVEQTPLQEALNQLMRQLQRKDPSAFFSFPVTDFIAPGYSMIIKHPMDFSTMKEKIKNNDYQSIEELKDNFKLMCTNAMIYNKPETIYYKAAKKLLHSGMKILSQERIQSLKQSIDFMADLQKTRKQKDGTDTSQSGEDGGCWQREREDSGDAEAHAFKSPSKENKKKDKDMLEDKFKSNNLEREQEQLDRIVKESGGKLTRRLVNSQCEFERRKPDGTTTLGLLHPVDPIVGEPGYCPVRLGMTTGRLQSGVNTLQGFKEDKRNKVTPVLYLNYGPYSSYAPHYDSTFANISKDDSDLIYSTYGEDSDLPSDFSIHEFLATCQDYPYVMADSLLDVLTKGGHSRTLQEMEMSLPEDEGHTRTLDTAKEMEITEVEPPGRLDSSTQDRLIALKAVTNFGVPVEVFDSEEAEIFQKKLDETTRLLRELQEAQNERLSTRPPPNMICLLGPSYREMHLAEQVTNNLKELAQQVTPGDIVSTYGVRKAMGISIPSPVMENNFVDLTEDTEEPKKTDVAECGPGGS

Sequence of CREB-binding protein (Homo sapiens) (Q92793 2-2442 limits assumed): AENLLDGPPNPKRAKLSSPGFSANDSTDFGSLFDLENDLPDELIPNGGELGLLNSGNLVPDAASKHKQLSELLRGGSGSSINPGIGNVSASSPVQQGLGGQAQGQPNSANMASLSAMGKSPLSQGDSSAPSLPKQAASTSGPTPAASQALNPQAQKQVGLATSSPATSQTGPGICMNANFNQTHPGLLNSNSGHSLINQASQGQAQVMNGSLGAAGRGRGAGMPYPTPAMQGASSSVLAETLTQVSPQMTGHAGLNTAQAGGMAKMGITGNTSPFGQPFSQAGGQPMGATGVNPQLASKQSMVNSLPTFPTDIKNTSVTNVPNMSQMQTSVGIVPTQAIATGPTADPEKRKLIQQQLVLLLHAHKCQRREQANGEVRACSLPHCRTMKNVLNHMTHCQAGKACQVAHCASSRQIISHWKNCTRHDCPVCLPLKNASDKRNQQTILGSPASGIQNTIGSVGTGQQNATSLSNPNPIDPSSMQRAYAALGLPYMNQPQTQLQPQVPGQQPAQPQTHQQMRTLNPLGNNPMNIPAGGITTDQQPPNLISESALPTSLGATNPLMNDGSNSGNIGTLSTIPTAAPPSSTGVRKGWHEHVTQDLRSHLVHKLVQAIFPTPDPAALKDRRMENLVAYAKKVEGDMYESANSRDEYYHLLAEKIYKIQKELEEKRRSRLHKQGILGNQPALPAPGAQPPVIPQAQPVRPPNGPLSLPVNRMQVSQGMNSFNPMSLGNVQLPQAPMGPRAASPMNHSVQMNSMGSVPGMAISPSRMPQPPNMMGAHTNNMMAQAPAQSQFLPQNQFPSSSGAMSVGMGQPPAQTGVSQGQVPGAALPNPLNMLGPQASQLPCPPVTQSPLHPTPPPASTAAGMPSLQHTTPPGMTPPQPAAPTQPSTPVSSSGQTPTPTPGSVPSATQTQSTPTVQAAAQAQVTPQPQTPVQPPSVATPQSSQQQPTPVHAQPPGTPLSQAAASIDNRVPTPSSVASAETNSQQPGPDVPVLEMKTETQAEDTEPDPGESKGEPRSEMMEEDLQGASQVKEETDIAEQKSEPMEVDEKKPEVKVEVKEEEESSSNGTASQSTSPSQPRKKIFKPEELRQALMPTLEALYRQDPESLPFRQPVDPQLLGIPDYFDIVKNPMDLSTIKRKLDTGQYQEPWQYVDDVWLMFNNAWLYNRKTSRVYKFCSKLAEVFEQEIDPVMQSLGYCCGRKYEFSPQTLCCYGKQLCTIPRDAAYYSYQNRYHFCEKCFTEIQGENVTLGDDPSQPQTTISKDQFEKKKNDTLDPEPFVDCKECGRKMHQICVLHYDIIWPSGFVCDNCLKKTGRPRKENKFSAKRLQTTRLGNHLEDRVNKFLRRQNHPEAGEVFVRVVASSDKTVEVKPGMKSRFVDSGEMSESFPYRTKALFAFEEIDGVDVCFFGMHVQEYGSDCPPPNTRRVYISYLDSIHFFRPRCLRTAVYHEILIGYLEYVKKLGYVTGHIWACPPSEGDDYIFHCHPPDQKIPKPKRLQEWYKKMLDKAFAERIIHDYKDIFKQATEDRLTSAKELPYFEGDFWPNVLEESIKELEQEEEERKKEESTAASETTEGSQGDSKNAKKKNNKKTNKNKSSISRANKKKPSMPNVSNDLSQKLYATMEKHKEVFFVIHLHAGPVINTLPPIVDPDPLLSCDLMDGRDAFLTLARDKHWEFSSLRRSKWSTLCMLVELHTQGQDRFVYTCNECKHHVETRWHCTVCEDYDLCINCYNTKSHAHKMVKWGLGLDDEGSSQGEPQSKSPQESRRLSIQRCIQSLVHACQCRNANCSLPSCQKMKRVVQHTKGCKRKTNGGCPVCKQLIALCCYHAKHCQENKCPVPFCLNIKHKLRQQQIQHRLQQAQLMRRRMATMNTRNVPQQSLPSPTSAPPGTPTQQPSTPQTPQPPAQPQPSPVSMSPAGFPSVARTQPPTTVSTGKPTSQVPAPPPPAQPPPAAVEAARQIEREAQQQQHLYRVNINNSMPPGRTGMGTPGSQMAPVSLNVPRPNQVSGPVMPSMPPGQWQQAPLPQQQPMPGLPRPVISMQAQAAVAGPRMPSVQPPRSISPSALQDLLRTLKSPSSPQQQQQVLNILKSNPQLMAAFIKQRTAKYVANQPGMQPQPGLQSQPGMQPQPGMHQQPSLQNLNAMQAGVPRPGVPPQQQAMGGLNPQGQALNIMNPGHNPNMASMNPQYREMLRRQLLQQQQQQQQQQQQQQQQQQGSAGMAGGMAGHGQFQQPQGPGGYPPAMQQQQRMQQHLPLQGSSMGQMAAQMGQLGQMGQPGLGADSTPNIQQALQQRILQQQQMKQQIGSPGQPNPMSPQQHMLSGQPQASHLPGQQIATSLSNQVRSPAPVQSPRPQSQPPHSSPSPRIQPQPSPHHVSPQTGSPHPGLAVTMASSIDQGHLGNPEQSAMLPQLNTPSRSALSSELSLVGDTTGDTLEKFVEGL
Sequence of Chromatin remodeling regulator CECR2 (Homo sapiens) (Q9BXF3 whole entry, looked up): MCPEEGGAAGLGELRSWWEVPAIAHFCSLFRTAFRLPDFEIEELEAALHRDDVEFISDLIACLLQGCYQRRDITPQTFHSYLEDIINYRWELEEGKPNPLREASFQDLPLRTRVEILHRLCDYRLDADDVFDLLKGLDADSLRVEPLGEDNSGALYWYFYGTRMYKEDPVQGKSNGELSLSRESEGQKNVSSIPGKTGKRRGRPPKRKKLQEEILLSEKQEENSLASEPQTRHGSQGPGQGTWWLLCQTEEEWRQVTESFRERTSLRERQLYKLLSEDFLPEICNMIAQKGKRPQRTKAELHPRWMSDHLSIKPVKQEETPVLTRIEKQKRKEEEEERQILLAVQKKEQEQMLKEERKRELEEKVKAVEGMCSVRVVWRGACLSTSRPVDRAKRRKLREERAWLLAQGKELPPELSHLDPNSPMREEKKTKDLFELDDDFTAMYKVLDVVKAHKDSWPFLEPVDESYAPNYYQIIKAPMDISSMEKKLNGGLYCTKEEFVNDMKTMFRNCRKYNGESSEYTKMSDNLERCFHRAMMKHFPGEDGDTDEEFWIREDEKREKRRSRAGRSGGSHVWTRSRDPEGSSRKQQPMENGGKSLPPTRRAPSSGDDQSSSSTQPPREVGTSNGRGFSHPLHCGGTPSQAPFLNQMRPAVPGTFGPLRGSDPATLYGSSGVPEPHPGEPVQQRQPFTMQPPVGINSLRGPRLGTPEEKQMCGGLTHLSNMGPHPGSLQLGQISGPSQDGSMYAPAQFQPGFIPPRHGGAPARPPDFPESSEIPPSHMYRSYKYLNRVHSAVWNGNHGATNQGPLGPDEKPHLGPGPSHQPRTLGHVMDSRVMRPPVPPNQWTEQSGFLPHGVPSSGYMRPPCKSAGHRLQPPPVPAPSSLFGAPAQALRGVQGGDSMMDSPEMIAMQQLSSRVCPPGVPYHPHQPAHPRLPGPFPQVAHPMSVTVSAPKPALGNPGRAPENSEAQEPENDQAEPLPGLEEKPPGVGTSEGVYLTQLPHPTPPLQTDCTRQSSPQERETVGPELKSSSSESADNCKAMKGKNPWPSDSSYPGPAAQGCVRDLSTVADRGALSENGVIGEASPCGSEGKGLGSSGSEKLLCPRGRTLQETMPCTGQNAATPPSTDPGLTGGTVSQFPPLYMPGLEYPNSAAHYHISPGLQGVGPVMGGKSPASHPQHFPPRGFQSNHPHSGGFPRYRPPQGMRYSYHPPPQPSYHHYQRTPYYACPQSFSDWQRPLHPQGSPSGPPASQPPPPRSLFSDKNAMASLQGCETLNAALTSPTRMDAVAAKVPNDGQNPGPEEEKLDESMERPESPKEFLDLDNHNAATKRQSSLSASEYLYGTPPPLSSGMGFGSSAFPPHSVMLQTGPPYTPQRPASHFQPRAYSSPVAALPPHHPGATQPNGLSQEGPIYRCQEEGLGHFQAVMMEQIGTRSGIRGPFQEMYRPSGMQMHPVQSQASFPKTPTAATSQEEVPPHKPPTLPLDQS
Sequence of Histone acetyltransferase KAT2A (Homo sapiens) (Q92830 2-837 limits assumed): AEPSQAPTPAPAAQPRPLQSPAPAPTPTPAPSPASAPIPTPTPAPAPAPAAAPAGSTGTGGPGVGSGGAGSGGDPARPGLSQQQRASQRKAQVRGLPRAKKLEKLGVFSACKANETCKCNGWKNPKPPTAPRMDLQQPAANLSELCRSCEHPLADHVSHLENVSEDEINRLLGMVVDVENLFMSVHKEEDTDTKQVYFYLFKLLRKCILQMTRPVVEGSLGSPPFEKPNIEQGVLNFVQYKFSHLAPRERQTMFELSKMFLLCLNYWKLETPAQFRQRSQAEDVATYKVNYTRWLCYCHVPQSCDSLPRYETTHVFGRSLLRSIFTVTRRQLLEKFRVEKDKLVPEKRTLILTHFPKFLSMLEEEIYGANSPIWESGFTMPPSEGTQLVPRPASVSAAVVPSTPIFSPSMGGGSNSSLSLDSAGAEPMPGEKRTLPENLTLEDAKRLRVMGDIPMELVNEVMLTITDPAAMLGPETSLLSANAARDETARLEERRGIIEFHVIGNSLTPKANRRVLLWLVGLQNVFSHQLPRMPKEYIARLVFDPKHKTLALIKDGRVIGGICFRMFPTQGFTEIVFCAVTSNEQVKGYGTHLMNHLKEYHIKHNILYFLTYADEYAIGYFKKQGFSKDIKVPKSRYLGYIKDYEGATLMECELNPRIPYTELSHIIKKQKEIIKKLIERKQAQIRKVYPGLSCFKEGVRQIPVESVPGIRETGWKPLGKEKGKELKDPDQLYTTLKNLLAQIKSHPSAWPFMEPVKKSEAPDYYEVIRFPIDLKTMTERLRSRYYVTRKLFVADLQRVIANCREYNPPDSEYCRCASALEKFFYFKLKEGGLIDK

Row | Activity [1] [%] | ΔTm [2] [°C] | ΔTm (Peregrin (Homo sapiens)) [°C] | ΔTm [3] [°C] | Activity [4] [%] | ΔTm (Homo sapiens) [°C] | Activity [5] [%] | SMILES
1 | 50 | 0 | 0 | 0 | < 30 | 0 | < 30 | COc1cc2c(cc1-c1c(C)n[nH]c1C)ncc1nc(C)n([C@H](C)c3ccccc3)c12
2 | > 80 | 0 | 0 | 0 | 50 | 0 | < 30 | COc1cc2c(cc1-c1c(C)noc1C)ncc1nc(C)n([C@H](C)c3ccccc3)c12
